# Laboratory results taken from US20090209589A1, “N-[(PYRIDIN-2-YL) METHOXY] HETROCYCLYL CARBOXAMIDE DERIVATIVES AND RELATED COMPOUNDS AS FUNGICIDES” (Bayer Cropscience SA, priority 2006, published 2009).
# Legend:
# Alternaria alternata = assay: Cell test on Alternaria alternata; assay type: cell-based; settings: under similar conditions (2 ppm, OD at 620 nm after 5 days)
# Description: The growth of Alternaria alternata is performed on PDA medium at 20° C. under black light during 14 days. The PDA medium is prepared by mixing 39 grams of PDA (Merck) in 1 liter of demineralized water.
# The medium is sterilized by autoclave 15 minutes at 121° C. After 14 days of growth, the spores of Alternaria alternata are recovered in sterilized water and the concentration of spores adjusted at 10^6 spores per ml.
# The compounds is solubilized in DMSO and added to sterile liquid glucose/mycopeptone medium (14.6 g/l of D-glucose, 7.1 g/l of mycological peptone (Oxoid) and 1.4 g/l of yeast extract (Merck)) at a concentration of 2 ppm. The medium is inoculated with the spore suspension at a concentration of 10^5 spores per ml.
# The efficacy of the compounds is assessed by OD measurement at 620 nm after 5 days at 20° C. in comparison with a control.
# Pyrenophora teres = assay: In vivo test on Pyrenophora teres (barley net blotch); settings: barley plants, preventive spray, dose of 330 ppm, grading 12 days after contamination
# Description: The active ingredients tested are prepared by homogenization in a mixture of acetone/tween/DMSO, then diluted with water to obtain the desired active material concentration.
# Barley plants (Express variety), sown on a 50/50 peat soil-pozzolana substrate in starter cups and grown at 12° C., are treated at the 1-leaf stage (10 cm tall) by spraying with the active ingredient prepared as described above. Plants, used as controls, are treated with the mixture of acetone/tween/DMSO/water not containing the active material.
# After 24 hours, the plants are contaminated by spraying them with an aqueous suspension of Pyrenophora teres spores (12,000 spores per ml). The spores are collected from a 12-day-old culture. The contaminated barley plants are incubated for 24 hours at about 20° C. and at 100% relative humidity, and then for 12 days at 80% relative humidity.
# Grading is carried out 12 days after the contamination, in comparison with the control plants.
SMILES,activity (Alternaria alternata),protection (Pyrenophora teres)
"O=C(NOCc1ncc(C(F)(F)F)cc1Cl)c1c(Cl)cccc1Cl [2,6-dichloro-N-{[3-chloro-5-(trifluoromethyl)pyridin-2-yl]methoxy}benzamide]",did not show any activity,
O=C(NCCc1ccccn1)c1nccc(-n2ccnc2)c1O [3-hydroxy-4-(1H-imidazol-1-yl)-N-(2-pyridin-2-ylethyl)pyridine-2-carboxamide],did not show any activity,
"Cc1ccsc1C(=O)NOCc1ncc(C(F)(F)F)cc1Cl [Compound C-1, N-{[3-chloro-5-(trifluoromethyl)pyridin-2-yl]methoxy}-3-methylthiophene-2-carboxamide]",,at least 70%
"O=C(NOCc1ncc(C(F)(F)F)cc1Cl)c1c(F)cccc1F [N-{[3-chloro-5-(trifluoromethyl)pyridin-2-yl]methoxy}-2,6-difluorobenzamide]",did not show any activity,
